Measured values published in the supplement of paper PMC10307832.

compound: CC1(C)CNc2cc(NC(=O)c3cccnc3NCc3ccncc3)ccc21 [Motesanib] + C[C@@H](Oc1cc(-c2cnn(C3CCNCC3)c2)cnc1N)c1c(Cl)ccc(F)c1Cl [Crizotinib] (partner 1 µM); experiment: relative viability (nuclei count vs DMSO), 5 days (fraction); higher = more cells survive; settings: first compound 1 µM
Method in brief: (§1)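 Relative viability was taken as the ratio of nuclei in treated wells to nuclei in vehicle wells. Lung cancer cell lines in 1536-well plates received compounds by pin tool one day after seeding, either one drug alone or a fixed anchor-drug dose plus five library-drug doses (not always all listed) in √10 steps. Nuclei were counted on 4× images after 5 days of treatment, and values are medians of duplicate plates.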

Cell Line | relative viability
IA-LM | 0.803
ChaGo-K-1 | 1.15
NCI-H2170 | 1.18
A549 | 0.777
NCI-H441 | 0.803
NCI-H1299 | 0.936

compound: CC1(C)CNc2cc(NC(=O)c3cccnc3NCc3ccncc3)ccc21 [Motesanib] + C[C@]1(O)C[C@@H](c2nc(-c3ccc4ccc(-c5ccccc5)nc4c3)c3c(N)nccn32)C1 [Linsitinib] (partner 1 µM); experiment: as above; settings: first compound 0.01 µM
Method in brief: as §1

Cell Line | relative viability
NCI-H727 | 0.3
EBC-1 | 0.829
NCI-H1703 | 0.814
NCI-H1993 | 0.675
SW 1573 | 0.815
NCI-H838 | 1.05
NCI-H520 | 0.86
Calu-6 | 0.971
IA-LM | 0.514
A549 | 0.532
NCI-H441 | 0.519
NCI-H1395 | 0.992
NCI-H1299 | 0.989
NCI-H1793 | 0.877

same assay, conditions: first compound 0.03162 µM

Cell Line | relative viability
NCI-H727 | 0.329
EBC-1 | 0.941
NCI-H1703 | 0.656
NCI-H1993 | 0.759
SW 1573 | 0.825
NCI-H838 | 1.09
LCLC-103H | 1.1
NCI-H520 | 1.02
Calu-6 | 0.932
IA-LM | 0.627
A549 | 0.633
NCI-H441 | 0.545
NCI-H1395 | 1.03
NCI-H1299 | 0.966
NCI-H1793 | 0.802

same assay, conditions: first compound 0.1 µM

Cell Line | relative viability
NCI-H727 | 0.304
EBC-1 | 0.978
NCI-H1703 | 0.497
NCI-H1993 | 0.727
SW 1573 | 0.65
NCI-H838 | 1.06
LCLC-103H | 1.12
NCI-H520 | 0.911
Calu-6 | 0.961
IA-LM | 0.594
A549 | 0.571
NCI-H441 | 0.626
NCI-H1395 | 1
NCI-H1299 | 1.02
NCI-H1793 | 0.796

same assay, conditions: first compound 0.3162 µM

Cell Line | relative viability
NCI-H727 | 0.292
EBC-1 | 0.959
NCI-H1703 | 0.306
NCI-H1993 | 0.719
SW 1573 | 0.773
NCI-H838 | 1.08
LCLC-103H | 1.09
NCI-H520 | 1.18
Calu-6 | 0.955
IA-LM | 0.482
A549 | 0.624
NCI-H441 | 0.603
NCI-H1395 | 1.11
NCI-H1299 | 0.977
NCI-H1793 | 0.793

same assay, conditions: first compound 1 µM

Cell Line | relative viability
NCI-H727 | 0.15
EBC-1 | 0.937
NCI-H1703 | 0.162
NCI-H1993 | 0.762
SW 1573 | 0.949
NCI-H838 | 1.07
LCLC-103H | 1.02
NCI-H520 | 0.923
Calu-6 | 1.08
IA-LM | 0.46
A549 | 0.773
NCI-H441 | 0.875
NCI-H1395 | 1.35
NCI-H1299 | 1.07
NCI-H1793 | 0.76

compound: C[C@@]1(C(=O)Nc2ccc(F)nc2)CCCN1c1nc(Nc2cc(C3CC3)n[nH]2)c2cccn2n1 + COc1cccc2cc(-c3nc([C@H]4CC[C@H](C(=O)O)CC4)n4ncnc(N)c34)[nH]c12 [OSI-027] (partner 0.5 µM); experiment: as above; settings: first compound 0.04 µM
Method in brief: as §1

Cell Line | relative viability
NCI-H2342 | 0.636
NCI-H1623 | 0.423
NCI-H727 | 0.373
NCI-H1650 | 0.546
NCI-H1993 | 0.545
SW 1573 | 0.548
NCI-H838 | 0.362
LCLC-103H | 0.434
NCI-H520 | 0.328
NCI-H1648 | 0.25
ChaGo-K-1 | 0.402
NCI-H2170 | 0.721
NCI-H522 | 0.589
SW 900 | 0.549
NCI-H441 | 0.405
NCI-H1395 | 0.727
NCI-H1793 | 0.254

same assay, conditions: first compound 0.1265 µM

Cell Line | relative viability
NCI-H2342 | 0.561
NCI-H1623 | 0.32
NCI-H727 | 0.273
NCI-H1650 | 0.49
NCI-H1993 | 0.533
SW 1573 | 0.24
NCI-H838 | 0.192
LCLC-103H | 0.295
NCI-H520 | 0.297
ChaGo-K-1 | 0.252
NCI-H2170 | 0.525
NCI-H522 | 0.36
SW 900 | 0.518
NCI-H441 | 0.322
NCI-H1395 | 0.561
NCI-H1793 | 0.195

same assay, conditions: first compound 0.4 µM

Cell Line | relative viability
NCI-H2342 | 0.448
NCI-H1623 | 0.307
NCI-H727 | 0.383
NCI-H1650 | 0.442
NCI-H1993 | 0.665
SW 1573 | 0.283
NCI-H838 | 0.182
LCLC-103H | 0.268
NCI-H520 | 0.257
ChaGo-K-1 | 0.317
NCI-H2170 | 0.592
NCI-H522 | 0.735
SW 900 | 0.464
NCI-H441 | 0.313
NCI-H1395 | 0.668

same assay, conditions: first compound 1.265 µM

Cell Line | relative viability
NCI-H2342 | 0.479
NCI-H1623 | 0.302
NCI-H727 | 0.351
NCI-H1650 | 0.374
NCI-H1993 | 0.605
SW 1573 | 0.302
NCI-H838 | 0.28
LCLC-103H | 0.274
NCI-H520 | 0.22
NCI-H1648 | 0.229
ChaGo-K-1 | 0.291
NCI-H2170 | 0.564
NCI-H522 | 0.704
SW 900 | 0.551
NCI-H441 | 0.328
NCI-H1395 | 0.665
NCI-H1793 | 0.196
